Data published in patent US8062995B2, “Dioxazine-substituted arylamides” (Bayer CropScience AG, priority 2005, dated 2011).

Legend:
[1] = logP determination by HPLC (reversed-phase C18), EEC Directive 79/831 Annex V.A8; type: physicochemical; settings: HPLC reversed-phase C18, 43° C., acidic range pH 2.7
Myzus persicae = Myzus persicae test (ingestion of active compound preparation); type: in vivo
Procedure: (§1) Myzus persicae Test Solvents: 1% of N-methylpyrrolidone (NMP) • 1% of diacetone alcohol Dye: brilliant sulphoflavin for staining the water To produce a suitable preparation of active compound, the active compound is mixed with the stated amounts of solvents and the concentrate is diluted with stained water to the desired concentration. The Myzus persicae are provided with an active compound preparation of the desired concentration for ingestion. After the desired period of time, the activity in % is determined. 100% means that all aphids have been killed; 0% means that none of the aphids have been killed.

[2] = tested on: caterpillars of the cotton bollworm (Heliothis armigera); test: Heliothis armigera test (leaf dip); type: in vivo
Method in brief: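 Compound was formulated in dimethylformamide with alkylaryl polyglycol ether emulsifier and diluted in emulsifier-containing water. Soya bean leaves were dipped in the preparation and populated with Heliothis armigera caterpillars while still moist. Kill (%) was scored after the desired period.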

[3] = tested on: caterpillars of the army worm (Spodoptera frugiperda); test: Spodoptera frugiperda test (SPODFR spray treatment); type: in vivo
Method in brief: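 Compound formulated in acetone/DMF with alkylaryl polyglycol ether emulsifier, diluted in emulsifier-containing water and sprayed on maize leaf discs; after drying, discs infested with Spodoptera frugiperda caterpillars. Mortality (%) scored after a set period, 100% meaning all caterpillars killed.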

[4] = tested on: Diabrotica undecimpunctata; test: Diabrotica undecimpunctata (DIABUN) test (eggs); type: in vivo
Procedure: as §1, with “Diabrotica undecimpunctata (DIABUN)” for “Myzus persicae Test”, “eggs (Diabrotica undecimpunctata)” for “Myzus persicae”, “treated” for “provided”, “concentration.” for “concentration for ingestion.”, “animals” for “aphids”

[5] = tested on: Spodoptera frugiperda larvae; test: Spodoptera frugiperda test (treatment by watering); type: in vivo
Method in brief: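 Compound formulated in dimethylformamide with alkylaryl polyglycol ether emulsifier and diluted with water to the desired concentration. Maize plants are watered with the preparation, then infested with Spodoptera frugiperda larvae. After the set period, % larval kill is scored (100% = all killed, 0% = none).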

[6] = tested on: larvae of the mustard beetle (Phaedon cochleariae); test: Phaedon test (sprayed Chinese cabbage discs); type: in vivo
Method in brief: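 Compound formulated in acetone/DMF with alkylaryl polyglycol ether emulsifier, diluted in emulsifier-containing water and sprayed onto Chinese cabbage (Brassica pekinensis) leaf discs. After drying, discs infested with Phaedon cochleariae larvae; % kill scored after set time (100% = all larvae dead, 0% = none).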

Aedes aegypti = Aedes aegypti test (larvae); type: in vivo
Procedure: as §1, with “Aedes aegypti Test” for “Myzus persicae Test”, “The larvae (Aedes aegypti)” for “The Myzus persicae”, “are treated” for “are provided”, “desired concentration.” for “desired concentration for ingestion.”, “all of the larvae” for “all aphids”, “the larvae” for “the aphids”

Heliothis virescens = Heliothis virescens test (eggs); type: in vivo
Procedure: as §1, with “Heliothis virescens” for “Myzus persicae Test”, “eggs (Heliothis virescens)” for “Myzus persicae”, “treated” for “provided”, “concentration.” for “concentration for ingestion.”, “animals” for “aphids”

## O=C(Nc1c(Cl)cc(Cl)cc1C1=NOCCO1)c1cc(Br)nn1-c1ncccc1Cl [Example I-1-8]
[1]
  logP: 3.09
Myzus persicae
  activity in the Myzus persicae test (in words): good activity
Myzus persicae; 30 ppm, 6-7 d, ingestion
  Kill rate after 6-7d in %: 100%
[2]
  activity in the Heliothis armigera test (in words): good activity
[2]; 20 ppm, 7 d
  Kill rate after 7d in %: 100%
[3]
  activity in the Spodoptera frugiperda test, spray treatment (in words): good activity
[3]; 100 g/ha, 7 d, spray treatment
  Kill rate after 7d in %: 100%
[4]
  activity in the Diabrotica undecimpunctata test (in words): good activity
[4]; 300 ppm, 2-5 d, eggs
  Kill rate after 2-5d in %: 100%
[5]
  activity in the Spodoptera frugiperda test, watering (in words): good activity
[5]; 20 ppm, 14 d, treatment by watering
  Kill rate after 14d in %: 95%
[6]
  activity in the Phaedon test (in words): good activity
[6]; 100 g/ha, 7 d
  Kill rate after 7d in %: 100%
Aedes aegypti
  activity in the Aedes aegypti test (in words): good activity
Aedes aegypti; 30 ppm, 2-4 d, larvae
  Kill rate after 2-4d in %: 100%
Heliothis virescens
  activity in the Heliothis virescens test (in words): good activity
Heliothis virescens; 100 ppm, 6-7 d, eggs
  Kill rate after 6-7d in %: 100%
